Literature values, collected in paper PMC9851200, “Multiparameter phenotypic screening for endogenous TFEB and TFE3 translocation identifies novel chemical series modulating lysosome function” (Autophagy, 2022).

Tests used:
Parameters in all cases: method as in original PKIS2 published data
[1] = molecular target: kinases (KINOMEscan panel) (Homo sapiens, UniProt P50750); conditions: kinase CDK9; Published KINOMEscan; ref original PKIS2 published data; cited from earlier work
[2] = molecular target: T1, kinases (KINOMEscan panel) (Homo sapiens, UniProt O15075); conditions: Published KINOMEscan; ref original PKIS2 published data; cited from earlier work
T1 sequence (O15075 1-740): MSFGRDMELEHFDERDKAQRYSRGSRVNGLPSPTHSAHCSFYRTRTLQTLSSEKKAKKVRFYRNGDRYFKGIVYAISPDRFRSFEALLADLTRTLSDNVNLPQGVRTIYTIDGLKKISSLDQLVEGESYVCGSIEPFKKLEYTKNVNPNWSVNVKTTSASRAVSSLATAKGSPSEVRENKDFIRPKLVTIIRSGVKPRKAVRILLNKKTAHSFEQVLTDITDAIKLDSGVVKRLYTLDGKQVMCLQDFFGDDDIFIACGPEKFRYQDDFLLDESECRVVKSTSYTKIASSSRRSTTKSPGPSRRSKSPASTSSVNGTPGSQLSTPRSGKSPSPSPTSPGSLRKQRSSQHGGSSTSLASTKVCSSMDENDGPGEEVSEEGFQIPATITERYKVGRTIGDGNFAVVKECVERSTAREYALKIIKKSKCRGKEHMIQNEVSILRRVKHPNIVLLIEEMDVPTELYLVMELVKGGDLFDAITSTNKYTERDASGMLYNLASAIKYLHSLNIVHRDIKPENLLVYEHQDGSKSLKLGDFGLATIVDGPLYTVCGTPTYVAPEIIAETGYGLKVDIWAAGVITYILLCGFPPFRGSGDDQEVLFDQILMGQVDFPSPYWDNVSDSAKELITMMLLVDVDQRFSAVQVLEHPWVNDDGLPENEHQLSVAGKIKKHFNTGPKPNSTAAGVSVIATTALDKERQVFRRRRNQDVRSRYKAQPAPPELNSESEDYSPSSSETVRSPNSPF

[3] = molecular target: kinases (KINOMEscan panel) (Homo sapiens, UniProt P22694); conditions: PRKACB; Published KINOMEscan; ref original PKIS2 published data; cited from earlier work
[4] = molecular target: kinases (KINOMEscan panel) (Homo sapiens, UniProt P41240); conditions: kinase CSK; Published KINOMEscan; ref original PKIS2 published data; cited from earlier work
[5] = molecular target: kinases (KINOMEscan panel) (Homo sapiens, UniProt P06239); conditions: LCK; Published KINOMEscan; ref original PKIS2 published data; cited from earlier work
[6] = molecular target: T2, kinases (KINOMEscan panel) (Homo sapiens, UniProt O00141); conditions: kinase SGK1; Published KINOMEscan; ref original PKIS2 published data; cited from earlier work
T2 sequence (O00141 1-431): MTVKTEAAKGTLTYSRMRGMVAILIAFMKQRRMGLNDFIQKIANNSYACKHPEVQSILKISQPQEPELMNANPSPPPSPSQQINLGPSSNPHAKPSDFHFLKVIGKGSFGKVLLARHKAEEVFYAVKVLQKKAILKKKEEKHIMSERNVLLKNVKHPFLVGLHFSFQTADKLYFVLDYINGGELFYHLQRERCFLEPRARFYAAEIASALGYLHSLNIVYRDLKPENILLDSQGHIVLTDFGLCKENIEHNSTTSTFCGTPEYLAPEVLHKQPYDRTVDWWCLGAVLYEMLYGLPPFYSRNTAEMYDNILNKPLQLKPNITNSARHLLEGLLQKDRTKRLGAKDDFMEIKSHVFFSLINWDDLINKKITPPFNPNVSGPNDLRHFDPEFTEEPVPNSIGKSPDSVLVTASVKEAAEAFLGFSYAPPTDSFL

[7] = molecular target: T3, kinases (KINOMEscan panel) (Homo sapiens, UniProt Q16832); conditions: DDR2; Published KINOMEscan; ref original PKIS2 published data; cited from earlier work
T3 sequence (Q16832 22-855): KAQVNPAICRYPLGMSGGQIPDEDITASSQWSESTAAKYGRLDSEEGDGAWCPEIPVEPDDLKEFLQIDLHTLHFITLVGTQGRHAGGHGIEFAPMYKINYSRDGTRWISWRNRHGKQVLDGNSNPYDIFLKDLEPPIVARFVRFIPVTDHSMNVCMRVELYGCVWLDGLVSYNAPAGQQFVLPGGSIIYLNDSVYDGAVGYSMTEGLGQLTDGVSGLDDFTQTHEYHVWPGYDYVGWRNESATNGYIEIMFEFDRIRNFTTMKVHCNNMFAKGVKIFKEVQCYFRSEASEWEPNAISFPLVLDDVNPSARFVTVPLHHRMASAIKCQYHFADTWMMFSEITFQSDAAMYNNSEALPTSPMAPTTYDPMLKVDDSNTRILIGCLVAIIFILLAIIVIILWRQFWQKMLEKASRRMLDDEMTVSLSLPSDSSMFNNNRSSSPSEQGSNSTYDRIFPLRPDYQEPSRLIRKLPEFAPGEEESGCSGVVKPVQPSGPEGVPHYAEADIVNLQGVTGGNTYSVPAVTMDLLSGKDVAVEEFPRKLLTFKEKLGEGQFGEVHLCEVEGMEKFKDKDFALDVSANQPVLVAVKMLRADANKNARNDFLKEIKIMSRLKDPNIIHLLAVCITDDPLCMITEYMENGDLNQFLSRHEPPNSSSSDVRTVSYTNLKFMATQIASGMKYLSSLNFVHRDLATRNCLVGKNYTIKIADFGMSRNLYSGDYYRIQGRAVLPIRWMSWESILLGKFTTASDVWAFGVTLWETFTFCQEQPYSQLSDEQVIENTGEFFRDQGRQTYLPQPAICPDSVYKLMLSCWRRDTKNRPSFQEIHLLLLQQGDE

Chain of kinases (KINOMEscan panel) (Homo sapiens, UniProt P41240) (P41240 whole entry): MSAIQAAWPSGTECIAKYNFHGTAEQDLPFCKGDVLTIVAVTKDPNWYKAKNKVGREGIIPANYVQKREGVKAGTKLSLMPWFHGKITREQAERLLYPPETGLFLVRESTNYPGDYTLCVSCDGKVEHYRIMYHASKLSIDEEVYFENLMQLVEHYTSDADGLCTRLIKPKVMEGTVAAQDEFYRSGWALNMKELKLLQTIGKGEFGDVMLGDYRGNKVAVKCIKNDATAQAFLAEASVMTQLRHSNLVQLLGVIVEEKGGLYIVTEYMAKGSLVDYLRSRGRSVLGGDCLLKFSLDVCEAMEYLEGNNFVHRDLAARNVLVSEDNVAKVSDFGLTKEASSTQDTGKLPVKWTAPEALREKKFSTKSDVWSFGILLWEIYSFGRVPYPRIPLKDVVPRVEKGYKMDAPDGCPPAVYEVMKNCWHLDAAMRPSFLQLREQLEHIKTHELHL
Chain of kinases (KINOMEscan panel) (Homo sapiens, UniProt P06239) (P06239 whole entry): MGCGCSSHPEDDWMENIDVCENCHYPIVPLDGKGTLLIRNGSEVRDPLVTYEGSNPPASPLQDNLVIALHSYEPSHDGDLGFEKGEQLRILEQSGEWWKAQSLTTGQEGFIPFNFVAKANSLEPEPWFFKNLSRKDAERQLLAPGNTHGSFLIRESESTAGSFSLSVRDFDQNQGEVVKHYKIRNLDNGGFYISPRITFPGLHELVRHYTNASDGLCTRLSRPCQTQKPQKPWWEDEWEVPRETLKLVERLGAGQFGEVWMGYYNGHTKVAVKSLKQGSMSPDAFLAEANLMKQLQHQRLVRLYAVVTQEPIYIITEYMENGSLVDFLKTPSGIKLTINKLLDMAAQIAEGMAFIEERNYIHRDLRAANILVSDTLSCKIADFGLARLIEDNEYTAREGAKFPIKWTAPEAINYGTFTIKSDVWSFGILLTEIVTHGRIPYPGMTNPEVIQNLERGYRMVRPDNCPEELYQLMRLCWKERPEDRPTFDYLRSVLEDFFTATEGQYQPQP
Chain of kinases (KINOMEscan panel) (Homo sapiens, UniProt P50750) (P50750 whole entry): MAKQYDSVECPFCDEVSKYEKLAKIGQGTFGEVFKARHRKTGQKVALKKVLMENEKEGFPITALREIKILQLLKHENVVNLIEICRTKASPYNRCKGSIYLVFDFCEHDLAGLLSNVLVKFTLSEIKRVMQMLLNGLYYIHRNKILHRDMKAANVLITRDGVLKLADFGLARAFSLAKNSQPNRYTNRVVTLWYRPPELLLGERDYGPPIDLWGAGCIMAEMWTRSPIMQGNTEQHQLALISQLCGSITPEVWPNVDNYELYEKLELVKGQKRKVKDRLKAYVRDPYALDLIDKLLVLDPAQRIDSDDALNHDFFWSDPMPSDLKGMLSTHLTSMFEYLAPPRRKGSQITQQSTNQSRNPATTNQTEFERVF

**Q.** For `Cc1cccc(-c2nc(Nc3ccncc3)c3ccccc3n2)n1` [NK215], which “KINOMEscan CDK9” value [1] is on record?
**A.** The value was 0.

**Q.** What about the “KINOMEscan DCLK1” value [2] of the same compound?
**A.** The value was 14.

**Q.** And the “KINOMEscan PRKACB” value [3]?
**A.** Its value is 30.

**Q.** What about the “KINOMEscan CSK” value [4] of the same compound?
**A.** The value was 4.

**Q.** And the “KINOMEscan LCK” value [5]?
**A.** The value was 9.

**Q.** And the “KINOMEscan SGK1” value [6]?
**A.** The value was 0.

**Q.** What about the “KINOMEscan DDR2” value [7] of the same compound?
**A.** The value was 45.
